Test results as given in ChEMBL document CHEMBL1140184, “Synthesis and structure-activity relationship studies of highly potent novel oxazolidinone antibacterials” (2008).
Converted amounts (≈) assume the structure as drawn.

How the values were obtained:
Type in all cases: functional
Streptococcus pneumoniae [1] = assay: Antibacterial activity against penicillin-resistant Streptococcus pneumoniae PR44 by agar dilution method
Staphylococcus aureus [2] = assay: Antibacterial activity against methicillin-resistant Staphylococcus aureus TK7 by agar dilution method
Staphylococcus aureus [3] = assay: Antibacterial activity against methicillin-sensitive Staphylococcus aureus Smith by agar dilution method
Haemophilus influenzae = assay: Antibacterial activity against Haemophilus influenzae IID983 by agar dilution method
Enterococcus faecium = assay: Antibacterial activity against vancomycin-resistant Enterococcus faecium A2280 by agar dilution method
Streptococcus pneumoniae [4] = assay: Antibacterial activity against penicillin-susceptible Streptococcus pneumoniae IID553 by agar dilution method

| SMILES | MIC (Streptococcus pneumoniae [1]) | MIC (Staphylococcus aureus [2]) | MIC (Staphylococcus aureus [3]) | MIC (Haemophilus influenzae) | MIC (Enterococcus faecium) | MIC (Streptococcus pneumoniae [4]) |
| --- | --- | --- | --- | --- | --- | --- |
| N#C[C@]1(c2ccc(-c3ccc(N4C[C@H](Cn5ccnn5)OC4=O)cc3)cn2)[C@@H]2C[S+]([O-])C[C@@H]21 (stereo partly specified) | 0.125 µg/mL (≈ 0.271 µM) | 0.125 µg/mL (≈ 0.271 µM) | 0.125 µg/mL (≈ 0.271 µM) | 8 µg/mL (≈ 17.4 µM) | 0.25 µg/mL (≈ 0.543 µM) | 0.125 µg/mL (≈ 0.271 µM) |
| N#CN1C[C@@H]2[C@H](C1)[C@@]2(C#N)c1ccc(-c2ccc(N3C[C@H](Cn4ccnn4)OC3=O)cc2F)cn1 | 0.06 µg/mL (≈ 0.128 µM) | 0.06 µg/mL (≈ 0.128 µM) | 0.06 µg/mL (≈ 0.128 µM) | 2 µg/mL (≈ 4.25 µM) | 0.06 µg/mL (≈ 0.128 µM) | 0.06 µg/mL (≈ 0.128 µM) |
| N#C[C@]1(c2ccc(-c3ccc(N4C[C@H](Cn5ccnn5)OC4=O)cc3F)cn2)[C@@H]2CSC[C@@H]21 | 0.06 µg/mL (≈ 0.13 µM) | 0.06 µg/mL (≈ 0.13 µM) | 0.06 µg/mL (≈ 0.13 µM) | > 2 µg/mL | 0.25 µg/mL (≈ 0.541 µM) | 0.125 µg/mL (≈ 0.27 µM) |
| N#C[C@]1(c2ccc(-c3c(F)cc(N4C[C@H](Cn5ccnn5)OC4=O)cc3F)cn2)[C@@H]2COC[C@@H]21 | 0.125 µg/mL (≈ 0.269 µM) | 0.06 µg/mL (≈ 0.129 µM) | 0.06 µg/mL (≈ 0.129 µM) | 4 µg/mL (≈ 8.61 µM) | 0.25 µg/mL (≈ 0.538 µM) | 0.25 µg/mL (≈ 0.538 µM) |
| N#C[C@]1(c2ccc(-c3ccc(N4C[C@H](Cn5ccnn5)OC4=O)cc3F)cn2)[C@@H]2CN(C(=O)CO)C[C@@H]21 | 0.06 µg/mL (≈ 0.119 µM) | 0.06 µg/mL (≈ 0.119 µM) | 0.06 µg/mL (≈ 0.119 µM) | 4 µg/mL (≈ 7.94 µM) | 0.125 µg/mL (≈ 0.248 µM) | 0.06 µg/mL (≈ 0.119 µM) |
| N#C[C@]1(c2ccc(-c3ccc(N4C[C@H](COc5ccon5)OC4=O)cc3F)cn2)[C@@H]2CNC[C@@H]21 | 0.06 µg/mL (≈ 0.13 µM) | 0.06 µg/mL (≈ 0.13 µM) | 0.06 µg/mL (≈ 0.13 µM) | 4 µg/mL (≈ 8.67 µM) | 0.125 µg/mL (≈ 0.271 µM) | 0.125 µg/mL (≈ 0.271 µM) |
| CC(=S)NC[C@H]1CN(c2ccc(-c3ccc([C@@]4(C#N)[C@@H]5CNC[C@@H]54)nc3)c(F)c2)C(=O)O1 | 0.03 µg/mL (≈ 0.0664 µM) | 0.03 µg/mL (≈ 0.0664 µM) | 0.06 µg/mL (≈ 0.133 µM) | 2 µg/mL (≈ 4.43 µM) | 0.06 µg/mL (≈ 0.133 µM) | 0.06 µg/mL (≈ 0.133 µM) |
| COC(=O)NC[C@H]1CN(c2ccc(-c3ccc([C@@]4(C#N)[C@@H]5CNC[C@@H]54)nc3)c(F)c2)C(=O)O1 | 0.125 µg/mL (≈ 0.277 µM) | 0.125 µg/mL (≈ 0.277 µM) | 0.125 µg/mL (≈ 0.277 µM) | 4 µg/mL (≈ 8.86 µM) | 0.125 µg/mL (≈ 0.277 µM) | 0.125 µg/mL (≈ 0.277 µM) |
| NC[C@]1(c2ccc(-c3ccc(N4C[C@H](Cn5ccnn5)OC4=O)cc3F)cn2)[C@@H]2CNC[C@@H]21 | 8 µg/mL (≈ 17.8 µM) | 4 µg/mL (≈ 8.9 µM) | 4 µg/mL (≈ 8.9 µM) | 128 µg/mL (≈ 285 µM) | 16 µg/mL (≈ 35.6 µM) | 4 µg/mL (≈ 8.9 µM) |
| N#C[C@]1(c2ccc(-c3ccc(N4C[C@H](Cn5ccnn5)OC4=O)cc3)cn2)[C@@H]2COC[C@@H]21 | 0.125 µg/mL (≈ 0.292 µM) | 0.06 µg/mL (≈ 0.14 µM) | 0.06 µg/mL (≈ 0.14 µM) | 4 µg/mL (≈ 9.34 µM) | 0.25 µg/mL (≈ 0.583 µM) | 0.125 µg/mL (≈ 0.292 µM) |
| CN1C[C@@H]2[C@H](C1)[C@@]2(C#N)c1ccc(-c2ccc(N3C[C@H](Cn4ccnn4)OC3=O)cc2F)cn1 | 0.06 µg/mL (≈ 0.131 µM) | 0.06 µg/mL (≈ 0.131 µM) | 0.06 µg/mL (≈ 0.131 µM) | 4 µg/mL (≈ 8.71 µM) | 0.25 µg/mL (≈ 0.544 µM) | 0.06 µg/mL (≈ 0.131 µM) |
| N#C[C@]1(c2ccc(-c3ccc(N4C[C@H](Cn5ccnn5)OC4=O)cc3F)cn2)[C@@H]2C[S+]([O-])C[C@@H]21 (stereo partly specified) | 0.06 µg/mL (≈ 0.125 µM) | 0.06 µg/mL (≈ 0.125 µM) | 0.06 µg/mL (≈ 0.125 µM) | 4 µg/mL (≈ 8.36 µM) | 0.125 µg/mL (≈ 0.261 µM) | 0.06 µg/mL (≈ 0.125 µM) |
| N#C[C@]1(c2ccc(-c3ccc(N4C[C@H](Cn5ccnn5)OC4=O)cc3)cn2)[C@@H]2CSC[C@@H]21 | 0.06 µg/mL (≈ 0.135 µM) | 0.06 µg/mL (≈ 0.135 µM) | 0.06 µg/mL (≈ 0.135 µM) | 8 µg/mL (≈ 18 µM) | 0.25 µg/mL (≈ 0.562 µM) | 0.125 µg/mL (≈ 0.281 µM) |
| N#C[C@]1(c2ccc(-c3c(F)cc(N4C[C@H](Cn5ccnn5)OC4=O)cc3F)cn2)[C@@H]2CNC[C@@H]21 | 0.125 µg/mL (≈ 0.27 µM) | 0.125 µg/mL (≈ 0.27 µM) | 0.125 µg/mL (≈ 0.27 µM) | 4 µg/mL (≈ 8.63 µM) | 0.25 µg/mL (≈ 0.539 µM) | 0.125 µg/mL (≈ 0.27 µM) |
| N#C[C@]1(c2ccc(-c3ccc(N4C[C@H](Cn5ccnn5)OC4=O)cc3F)cc2)[C@@H]2CNC[C@@H]21 | 0.06 µg/mL (≈ 0.135 µM) | 0.06 µg/mL (≈ 0.135 µM) | 0.125 µg/mL (≈ 0.281 µM) | 4 µg/mL (≈ 9 µM) | 0.25 µg/mL (≈ 0.562 µM) | 0.125 µg/mL (≈ 0.281 µM) |
| N#C[C@]1(c2ccc(-c3ccc(N4C[C@H](Cn5ccnn5)OC4=O)cc3F)cn2)[C@@H]2COC[C@@H]21 | 0.06 µg/mL (≈ 0.134 µM) | 0.06 µg/mL (≈ 0.134 µM) | 0.06 µg/mL (≈ 0.134 µM) | 2 µg/mL (≈ 4.48 µM) | 0.25 µg/mL (≈ 0.56 µM) | 0.06 µg/mL (≈ 0.134 µM) |
| N#C[C@]1(c2ccc(-c3ccc(N4C[C@H](Cn5ccnn5)OC4=O)cc3)cn2)[C@@H]2CS(=O)(=O)C[C@@H]21 | 0.06 µg/mL (≈ 0.126 µM) | 0.06 µg/mL (≈ 0.126 µM) | 0.06 µg/mL (≈ 0.126 µM) | 4 µg/mL (≈ 8.39 µM) | 0.125 µg/mL (≈ 0.262 µM) | 0.06 µg/mL (≈ 0.126 µM) |
| CC(=O)NC[C@H]1CN(c2ccc(N3CCOCC3)c(F)c2)C(=O)O1 [LINEZOLID] |  | 1 µg/mL (≈ 2.96 µM) | 1 µg/mL (≈ 2.96 µM) | 16 µg/mL (≈ 47.4 µM) | 2 µg/mL (≈ 5.93 µM) |  |
